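Following 48 hours of exposure in 96-well plates, responses at five concentrations were used to interpolate endpoints linearly. TGI: total growth inhibition.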 Where a SMILES comes first, the peptide text is derived from it.
Key:
Assay in all cases: growth of human tumour cells (NCI), 48 h
HL-60(TB) leukemia = system: HL-60(TB) leukemia
TK-10 renal = system: TK-10 renal
HS 578T breast = system: HS 578T breast
UO-31 renal = system: UO-31 renal
OVCAR-4 ovarian = system: OVCAR-4 ovarian
MDA-N = system: MDA-N
T-47D breast = system: T-47D breast
OVCAR-5 ovarian = system: OVCAR-5 ovarian
HCT-116 colon = system: HCT-116 colon
RXF 393 renal = system: RXF 393 renal
SK-MEL-5 melanoma = system: SK-MEL-5 melanoma
M14 melanoma = system: M14 melanoma

SMILES	TGI (HL-60(TB) leukemia) [µM]	TGI (TK-10 renal) [µM]	TGI (HS 578T breast) [µM]	TGI (UO-31 renal) [µM]	TGI (OVCAR-4 ovarian) [µM]	TGI (MDA-N) [µM]	TGI (T-47D breast) [µM]	TGI (OVCAR-5 ovarian) [µM]	TGI (HCT-116 colon) [µM]	TGI (RXF 393 renal) [µM]	TGI (SK-MEL-5 melanoma) [µM]	TGI (M14 melanoma) [µM]
CN(C)CC1CCC/C(=C\c2ccccc2)C1=O (centres undefined)	> 100	7.85	9.87	5.08	3.17	8.93	4.35	29	2.91	7.38	21.4	–
COc1ccc2c(c1OC)C(=O)N/C2=C\c1c(CCN(C)C)cc2c(c1OC)OCO2	> 100	> 100	> 100	–	> 100	> 100	> 100	> 100	> 100	84.1	> 100	> 100
CCOC(=O)C1(N)CC1	> 100	> 100	> 100	> 100	> 100	> 100	> 100	> 100	> 100	> 100	> 100	> 100
CN(C)c1ccc(/C=C(\NC(=O)c2ccccc2)C(=O)Nc2cccc(C(=O)NCCCO)c2)cc1	> 100	> 100	> 100	> 100	> 100	> 100	> 100	> 100	> 100	> 100	> 100	> 100
COc1ccc(-c2nc3c(C(=O)NCCN(C)C)cccc3c3ccccc23)cc1	7	19.8	28.9	5.16	12.5	5.45	29.7	18.2	11.6	–	3.3	3.93
CN1CC2=C(NC(=S)NC2c2ccccc2Cl)/C(=C/c2ccccc2Cl)C1 (centres undefined)	62.6	> 100	> 100	93.1	76.7	> 100	> 100	> 100	> 100	> 100	32.3	> 100
CCOc1cccc(-c2cc(=O)c3cc4c(cc3[nH]2)OCO4)c1	> 100	8.45	13.5	35.2	> 100	> 100	> 100	> 100	7.85	1.82	> 100	> 37.6
O=[N+]([O-])C(/C=C(\Cl)[N+](=O)[O-])=C(N1CCCCC1)N1CCCCC1	41.7	> 100	> 100	75.7	> 100	41	> 100	> 100	62.4	> 100	46.5	57
C#CCOCn1cc(C)c(=O)[nH]c1=O	> 100	> 100	> 100	> 100	–	> 100	> 100	> 100	> 100	–	> 100	> 100
Cc1ccsc1C(=S)Nc1ccc(Cl)c(/C=N/OC(C)C)c1	34.6	> 100	> 100	> 100	98.9	> 100	> 100	> 100	> 100	69.4	75.4	> 100
O=C(CN=C(CN(c1ccccc1)c1ccccc1)Oc1ccc(Cl)cc1Cl)n1ccnc1	–	> 100	> 100	> 100	> 100	> 100	> 100	> 100	> 100	> 100	> 100	> 100
CC1=CC(=O)N(n2c(Cc3ccc(Cl)cc3)n[nH]c2=O)C1=O	–	> 100	> 100	> 100	> 100	> 100	> 100	> 100	> 100	53.1	> 100	> 100
O=S(=O)(c1cc(Cl)ccc1Cl)N1CCN(c2cccc(Cl)c2)CC1	> 100	> 100	> 100	> 100	> 100	> 100	> 100	> 100	> 100	> 100	> 100	–
Cc1ccc(C(=O)Oc2ccc(/C=C3\CCC/C(=C\c4ccc(OC(=O)c5ccc(C)cc5)cc4)C3=O)cc2)cc1	> 100	> 100	> 100	> 100	> 100	> 100	> 100	> 100	> 100	–	> 100	> 100
O=C1[C@@H](O)[C@@H]2CCCC[C@@]23CCCN13	> 100	> 100	> 100	> 100	> 100	> 100	> 100	> 100	> 100	> 100	> 100	> 100
CCC12C=CCN3CCC4(c5cc(C(c6ccc(OC)cc6)C6Cc7ccccc7N6)c(OC)cc5N(C)C4C(O)(C(=O)OC)C1O)C32 (centres undefined)	24.1	66.3	> 100	31.5	> 100	> 100	9.98	> 100	> 100	83.1	52	> 100
Cc1ccccc1Nc1nc(NNC(=O)Cc2ccccc2)nc(NNC(=O)c2ccncc2)n1	> 10	> 10	> 10	> 10	> 10	> 10	> 10	–	–	–	–	> 10
CC1(C)CCCCCCCCCC2CC2CCC(C)(C)C1=O (centres undefined)	49.1	46	82.3	36.9	> 100	> 100	47.1	40	31.8	29.3	43.2	48.6
CC(C(=O)n1ccnc1)N1c2ccccc2Sc2ccccc21 (centres undefined)	> 100	> 100	> 100	> 100	> 100	> 100	> 100	> 100	> 100	> 100	> 100	> 100

SMILES	TGI (HL-60(TB) leukemia) [µM]	TGI (TK-10 renal) [µM]	TGI (HS 578T breast) [µM]	TGI (UO-31 renal) [µM]	TGI (OVCAR-4 ovarian) [µM]	TGI (MDA-N) [µM]	TGI (T-47D breast) [µM]	TGI (OVCAR-5 ovarian) [µM]	TGI (HCT-116 colon) [µM]	TGI (RXF 393 renal) [µM]	TGI (SK-MEL-5 melanoma) [µM]	TGI (M14 melanoma) [µM]
CC(=O)NC1COC(COC(=O)CCCCCCCCCCNC(=O)c2ccc([N+](=O)[O-])c3c(=O)c4ccccc4[nH]c23)C(O)C1OC(C)C(=O)NC(C(=O)NC(CCC(N)=O)C(=O)OCc1ccccc1)C(C)C (centres undefined)	6.72	54.4	17.6	19.1	30.3	75	13	> 81.5	42.7	23.2	57.9	66.3
O=S(=O)(CCC[C@H]1[C@@H](CCOCc2ccccc2)C2CCCN1O2)c1ccccc1 (some centres undefined)	–	> 100	> 100	> 100	> 100	> 100	> 100	> 100	> 100	> 100	> 100	> 100
O=CN1CCC23CC(O)CCC2C1Cc1cc(Oc2nnnn2-c2ccccc2)cc(O)c13 (centres undefined)	> 100	> 100	> 100	> 100	> 100	> 100	> 100	> 100	> 100	> 100	> 100	> 100
C=CC1(c2ccc3ccccc3c2)OCC(CC)O1 (centres undefined)	23.3	> 100	77	> 100	> 100	> 100	> 100	> 100	> 100	> 100	> 100	> 100
O=[N+]([O-])/C(Cl)=C/C(=C1/Nc2ccccc2O1)[N+](=O)[O-]	37.7	> 100	84.1	35.8	84.4	46	> 100	–	28.6	38.6	40.5	51.1
C=CCCCC1(C)CCNC1=S (centres undefined)	–	> 100	> 100	> 100	> 100	> 100	> 100	> 100	> 100	> 100	> 100	> 100
CC(C)Cn1cnc2c(Cl)nc3ccccc3c21	62.9	> 100	> 100	> 100	> 100	> 100	> 100	> 100	> 100	> 100	42.2	> 100
Cc1cn(C2CCN(CC3COC(C)(C)O3)O2)c(=O)[nH]c1=O (centres undefined)	> 100	> 100	> 100	> 100	> 100	> 100	> 100	> 100	> 100	> 100	> 100	> 100
O=C1/C(=C/c2ccc(O)c(O)c2)CC/C1=C\c1ccc(O)c(O)c1	> 46.2	> 100	> 100	7.31	> 57.5	> 100	63.3	> 100	> 47.8	19.3	> 60.3	9.56
CCOC(=O)c1sc2nc1CSc1sc(=S)sc1SCc1nc(sc1C(=O)OCC)-c1nc(c(C(=O)OCC)s1)CSc1sc(=S)sc1SCc1nc-2sc1C(=O)OCC	> 10	> 10	> 10	> 10	> 10	> 10	> 10	> 10	> 10	> 10	> 10	–
CCC(C)C(NC(=O)C(CC(C)C)NC(=O)CNC(=O)C(NC(=O)C1CCCN1C(=O)C(CC(C)C)NC(=O)C(N)Cc1ccccc1)C(C)CC)C(=O)NC(CC(C)C)C(N)=O (centres undefined) (H-FLPIGLIL-NH2; configuration not given here)	> 75	> 75	> 75	> 75	> 75	> 75	> 75	> 75	> 75	–	> 75	> 75
CC(=O)n1[nH]c(=O)n(-c2ccccc2)c1=O	> 100	> 100	> 100	> 100	> 100	> 100	> 100	> 100	> 100	> 100	> 100	> 100
O=c1[nH]nc(Cc2ccccc2)n1/N=C/c1ccc([N+](=O)[O-])cc1	> 100	> 100	> 100	> 100	> 100	> 100	> 100	> 100	> 100	> 100	> 100	–
CC(=O)Nc1cc2nc3n(c2cc1C)CCC3OC(C)=O (centres undefined)	> 100	–	> 100	> 100	> 100	> 100	> 100	> 100	> 100	> 100	–	> 100
O=C1C=C(c2ccccc2)O/C1=C\C(=O)c1ccc(Cl)cc1	–	35	61.5	35.8	58.2	38.7	74.1	88	31.2	32.6	91.9	41.5
CCOC(=O)C(NC(=O)CC)(Nc1ccc(F)cc1F)C(F)(F)F (centres undefined)	> 100	> 100	> 100	> 100	–	> 100	> 100	> 100	> 100	> 100	> 100	> 100
CCOC(=O)N/N=C(\CC)OCC	> 100	> 100	> 100	> 100	–	> 100	> 100	> 100	> 100	> 100	> 100	> 100
CN1CCN(Cc2nc3c(s2)CCc2sccc2-3)CC1	–	> 100	> 100	> 100	> 100	> 100	> 100	> 100	> 100	> 100	> 100	> 100

— PubChem BioAssay (NCI)
